Test results as given in patent US6355799B1, “Substituted benzene compounds, process for their preparation, and herbicidal and defoliant compositions containing them” (ISK Americas Incorporated, priority 1997, dated 2002).

Key:
Type in all cases: in vivo
[1] = test system: lambsquarters (Chenopodium album, CHEAL); assay: Pre-emerge test, greenhouse herbicide activity screening; settings: pre-emerge, 14 days after application, rating scale 0-100
Summary of the method: (§1)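 Rating: 0–100 visual injury, 14 DAA. Application: acetone, 187 l/ha, 15–1000 g ai/ha, flat-fan track sprayer with nozzle 40–45 cm above soil or canopy. Post-emerge runs used 0.25% v/v surfactant on 2–3 leaf plants.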

[2] = test system: sicklepod (Cassia obtusifolia, CASOB); assay: as above; settings: pre-emerge, 14 days after application, rating scale 0-100
Summary of the method: as §1

[3] = test system: ivyleaf morningglory (Ipomoea hederacea, IPOHE); assay: as above; settings: pre-emerge, 14 days after application, rating scale 0-100
Summary of the method: as §1

[4] = test system: large crabgrass (Digitaria sanguinalis, DIGSA); assay: as above; settings: pre-emerge, 14 days after application, rating scale 0-100
Summary of the method: as §1

[5] = test system: green foxtail (Setaria viridis, SETVI); assay: as above; settings: pre-emerge, 14 days after application, rating scale 0-100
Summary of the method: as §1

[6] = test system: johnsongrass (Sorghum halepense, SORHA); assay: as above; settings: pre-emerge, 14 days after application, rating scale 0-100
Summary of the method: as §1

[7] = test system: barnyardgrass (Echinochloa crus-galli, ECHCG); assay: as above; settings: pre-emerge, 14 days after application, rating scale 0-100
Summary of the method: as §1

[8] = test system: velvetleaf (Abutilon theophrasti, ABUTH); assay: as above; settings: pre-emerge, 14 days after application, rating scale 0-100
Summary of the method: as §1

[9] = test system: sicklepod (Cassia obtusifolia, CASOB); assay: Post-emerge test, greenhouse herbicide activity screening; settings: post-emerge, 14 days after application, rating scale 0-100
Summary of the method: as §1

[10] = test system: ivyleaf morningglory (Ipomoea hederacea, IPOHE); assay: as above; settings: post-emerge, 14 days after application, rating scale 0-100
Summary of the method: as §1

[11] = test system: large crabgrass (Digitaria sanguinalis, DIGSA); assay: as above; settings: post-emerge, 14 days after application, rating scale 0-100
Summary of the method: as §1

[12] = test system: green foxtail (Setaria viridis, SETVI); assay: as above; settings: post-emerge, 14 days after application, rating scale 0-100
Summary of the method: as §1

[13] = test system: barnyardgrass (Echinochloa crus-galli, ECHCG); assay: as above; settings: post-emerge, 14 days after application, rating scale 0-100
Summary of the method: as §1

[14] = test system: redroot pigweed (Amaranthus retroflexus, AMARE); assay: as above; settings: post-emerge, 14 days after application
Summary of the method: as §1

[15] = test system: velvetleaf (Abutilon theophrasti, ABUTH); assay: as above; settings: post-emerge, 14 days after application, rating scale 0-100
Summary of the method: as §1

[16] = test system: field corn (Zea mays L., var. Dekalb 535, CORN); assay: Pre-emerge test, crop safety; settings: pre-emerge, 14 days after application, rating scale 0-100
Summary of the method: (§2)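 Visual ratings on a 0-100 scale (0 no damage, 100 all plants dead) were taken at 14 days after treatment. Rates of 15-1000 g ai/ha in acetone, 187 l/ha, were sprayed onto soil one day after planting (pre-emerge) or onto 2-3 leaf plants with 0.25% v/v surfactant (post-emerge).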

[17] = test system: upland rice (Oryza sp., var. Tebonnet, RICE); assay: Pre-emerge test, crop safety; settings: pre-emerge, 14 days after application, rating scale 0-100
Summary of the method: as §2

[18] = test system: redroot pigweed (Amaranthus retroflexus, AMARE); assay: Pre-emerge test, greenhouse herbicide activity screening; settings: pre-emerge, 14 days after application, rating scale 0-100
Summary of the method: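 Compounds in acetone were track-sprayed at 15-1000 g ai/ha (187 l/ha) on sandy loam pots: pre-emerge one day after seeding, post-emerge at 2-3 leaf stage with 0.25% v/v non-ionic surfactant. Phytotoxicity was rated 14 days later on a 0 (no damage) to 100 (complete death) scale.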

[19] = test system: field corn (Zea mays L., var. Dekalb 535, CORN); assay: Post-emerge test, crop safety; settings: post-emerge, 14 days after application, rating scale 0-100
Summary of the method: (§3)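 Plants grown in 10 cm pots of sandy loam mix received acetone-dissolved compounds through a moving flat-fan nozzle. Doses ranged from 15 to 1000 g ai/ha. Pre-emerge pots were seeded one day earlier, post-emerge pots 8–21 days earlier. Fourteen days on, each pot was graded 0–100 for damage.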

[20] = test system: upland rice (Oryza sp., var. Tebonnet, RICE); assay: Post-emerge test, crop safety; settings: post-emerge, 14 days after application, rating scale 0-100
Summary of the method: as §3

## CCOC(=O)N(C)C(=O)NNc1c(OC)c(Cl)cc(F)c1-n1c(=O)cc(C(F)(F)F)n(C)c1=O [15-9]
[1]; 63 g ai/ha
  phytotoxicity rating CHEAL: 100
[1]; 250 g ai/ha
  phytotoxicity rating CHEAL: 100
[2]; 63 g ai/ha
  phytotoxicity rating CASOB: 90
[2]; 250 g ai/ha
  phytotoxicity rating CASOB: 100
[3]; 63 g ai/ha
  phytotoxicity rating IPOHE: 99
[3]; 250 g ai/ha
  phytotoxicity rating IPOHE: 100
[4]; 63 g ai/ha
  phytotoxicity rating DIGSA: 90
[4]; 250 g ai/ha
  phytotoxicity rating DIGSA: 100
[5]; 63 g ai/ha
  phytotoxicity rating SETVI: 100
[5]; 250 g ai/ha
  phytotoxicity rating SETVI: 100
[6]; 63 g ai/ha
  phytotoxicity rating SORHA: 100
[6]; 250 g ai/ha
  phytotoxicity rating SORHA: 100
[7]; 63 g ai/ha
  phytotoxicity rating ECHCG: 99
[7]; 250 g ai/ha
  phytotoxicity rating ECHCG: 100
[8]; 63 g ai/ha
  phytotoxicity rating ABUTH: 100
[8]; 250 g ai/ha
  phytotoxicity rating ABUTH: 100
[9]; 63 g ai/ha
  Post-emerge Herbicidal Activity CASOB (phytotoxicity rating): 10
[9]; 250 g ai/ha
  Post-emerge Herbicidal Activity CASOB (phytotoxicity rating): 60
[10]; 63 g ai/ha
  Post-emerge Herbicidal Activity IPOHE (phytotoxicity rating): 100
[10]; 250 g ai/ha
  Post-emerge Herbicidal Activity IPOHE (phytotoxicity rating): 85
[11]; 63 g ai/ha
  Post-emerge Herbicidal Activity DIGSA (phytotoxicity rating): 0
[11]; 250 g ai/ha
  Post-emerge Herbicidal Activity DIGSA (phytotoxicity rating): 80
[12]; 63 g ai/ha
  Post-emerge Herbicidal Activity SETVI (phytotoxicity rating): 0
[12]; 250 g ai/ha
  Post-emerge Herbicidal Activity SETVI (phytotoxicity rating): 80
[13]; 63 g ai/ha
  Post-emerge Herbicidal Activity ECHCG (phytotoxicity rating): 0
[13]; 250 g ai/ha
  Post-emerge Herbicidal Activity ECHCG (phytotoxicity rating): 90
[14]; 63 g ai/ha, rating scale 0-100 (0 no damage, 100 complete death)
  Post-emerge Herbicidal Activity AMARE (phytotoxicity rating): 10
[14]; 250 g ai/ha, rating scale 0-100
  Post-emerge Herbicidal Activity AMARE (phytotoxicity rating): 95
[15]; 63 g ai/ha
  Post-emerge Herbicidal Activity ABUTH (phytotoxicity rating): 80
[15]; 250 g ai/ha
  Post-emerge Herbicidal Activity ABUTH (phytotoxicity rating): 100
[16]; 63 g ai/ha
  phytotoxicity rating CORN: 85
[16]; 250 g ai/ha
  phytotoxicity rating CORN: 98
[17]; 63 g ai/ha
  phytotoxicity rating RICE: 95
[17]; 250 g ai/ha
  phytotoxicity rating RICE: 100
[18]; 63 g ai/ha
  phytotoxicity rating AMARE: 100
[18]; 250 g ai/ha
  phytotoxicity rating AMARE: 100
[19]; 63 g ai/ha
  Post-emerge Herbicidal Activity CORN (crop damage rating): 30
[19]; 250 g ai/ha
  Post-emerge Herbicidal Activity CORN (crop damage rating): 70
[20]; 63 g ai/ha
  Post-emerge Herbicidal Activity RICE (crop damage rating): 50
[20]; 250 g ai/ha
  Post-emerge Herbicidal Activity RICE (crop damage rating): 90
